Laboratory results published in patent publication US20260022142A1, “MACROCYCLIC IMMUNOMODULATORS” (Bristol-Myers Squibb Company, priority 2022, published 2026).
Numbered stars: 1 amine (or outer) side, 2 acyl side, 3 side chain; on linkers, the order of the positions; unused ones are H or OH. Bridge positions count the residues as written; N and C are the ends. Square brackets hold non-standard residues; d marks the D form. Peptide text beside a SMILES is read from it. * marks the point of attachment. ξ: configuration not given here. Phe(4-COOH) = N[C@@H](Cc1ccc(C(=O)O)cc1)C(=O)O; Bip = N[C@@H](Cc1ccc(-c2ccccc2)cc1)C(=O)O; Phe(4-NH2) = Nc1ccc(C[C@H](N)C(=O)O)cc1; Phe(3-Me) = Cc1cccc(C[C@H](N)C(=O)O)c1; βAsp = O=C(O)[C@H](CC(=O)[*:2])N[*:1]; NH(CH2)12COOH = O=C(O)CCCCCCCCCCCCN*; Val(3-OH) = CC(C)(O)[C@H](N)C(=O)O; hArg = N=C(N)NCCCC[C@H](N)C(=O)O; 4Pal = N[C@@H](Cc1ccncc1)C(=O)O; Cha = N[C@@H](CC1CCCCC1)C(=O)O; Cit = NC(=O)NCCC[C@H](N)C(=O)O; Thr(3ξ) = CC(O)[C@H](N)C(=O)O; 12Ado = NCCCCCCCCCCCC(=O)O; dDab = NCC[C@@H](N)C(=O)O; hSer = N[C@@H](CCO)C(=O)O; Carboxymethyl = O=C(O)C*; Orn = NCCC[C@H](N)C(=O)O; Aun = NCCCCCCCCCCC(=O)O; Dab = NCC[C@H](N)C(=O)O; Dap = NC[C@H](N)C(=O)O; AEEA = NCCOCCOCC(=O)O

Biological target: T1, PD-1/PD-L1 interaction (PE-labeled human PD-L1-Ig binding to Jurkat cell line over-expressing human PD-1) (Homo sapiens, UniProt Q15116)
T1 construct: expressed in transfected cells; host or cells: Jurkat
T1 sequence (Q15116 25-288): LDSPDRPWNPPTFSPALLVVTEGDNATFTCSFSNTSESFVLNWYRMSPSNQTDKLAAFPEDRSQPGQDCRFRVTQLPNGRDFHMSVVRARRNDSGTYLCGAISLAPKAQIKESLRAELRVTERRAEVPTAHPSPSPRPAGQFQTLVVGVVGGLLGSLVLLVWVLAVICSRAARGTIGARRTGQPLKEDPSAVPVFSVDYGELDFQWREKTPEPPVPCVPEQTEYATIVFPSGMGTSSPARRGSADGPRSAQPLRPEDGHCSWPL
Assay: Jurkat-PD-1 Cell Binding High-Content Screening Assay (CBA)
Assay type: cell-based
Conditions: Jurkat cell line over-expressing human PD-1; PE-labeled PD-L1-Ig 20 nM final; read-out: Jurkat hPD1-PDL1 IC50
Summary of the method: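 Jurkat cells stably over-expressing human PD-1 were seeded in DMEM with 10% fetal calf serum and pre-incubated with compound for 2 h at 37° C. PE-labeled human PD-L1-Ig was then added at 20 nM final for 1 hour, after which cells were fixed with paraformaldehyde, Hoechst-stained and imaged by high-content microscopy.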

| IC50 [nM] | SMILES |
| --- | --- |
| 4.8 | Cc1cccc(C[C@@H]2NC(=O)[C@H](CC(=O)O)NC(=O)[C@H](Cc3ccc(OCC(=O)O)cc3)NC(=O)[C@H](CN)NC(=O)CSC[C@@H](C(=O)N[C@@H](CCN)C(=O)NCCOCCOCC(=O)NCCCCCCCCCCC(=O)O)NC(=O)[C@H](CCCN)NC(=O)[C@H](C(C)C)NC(=O)[C@H](CC3CCCCC3)NC(=O)[C@H](CCN)NC(=O)[C@@H](CC(C)C)NC(=O)[C@H](CCCN)NC(=O)[C@H](Cc3ccc(O)cc3)NC(=O)[C@H](Cc3ccc(-c4ccccc4)cc3)NC(=O)[C@H](Cc3ccc(N)cc3)NC2=O)c1 [Compound 2065] ({CH2CO}-[Dap]Y(Carboxymethyl)D[Phe(3-Me)][Phe(4-NH2)][Bip]Y[Orn][dL][Dab][Cha]V[Orn]C[Dab][AEEA][Aun]-OH; thioether N-14) |
| 344 | Cc1cccc(C[C@@H]2NC(=O)[C@H](CC(=O)O)NC(=O)[C@H](Cc3ccc(C(=O)O)cc3)NC(=O)[C@H](Cc3ccncc3)NC(=O)CSC[C@@H](C(=O)N[C@@H](CCN)C(=O)NCCOCCOCC(=O)NCCOCCOCC(=O)NCCCCCCCCCCC(=O)O)NC(=O)[C@H](CCC(=O)O)NC(=O)[C@H](C(C)C)NC(=O)[C@H](CC3CCCCC3)NC(=O)[C@H](CCN)NC(=O)[C@@H](CC(C)C)NC(=O)[C@H](CCCN)NC(=O)[C@H](Cc3ccc(C(=O)O)cc3)NC(=O)[C@H](Cc3ccc(-c4ccccc4)cc3)NC(=O)[C@H](Cc3ccc(C(=O)O)cc3)NC2=O)c1 [Compound 3765] ({CH2CO}-[4Pal][Phe(4-COOH)]D[Phe(3-Me)][Phe(4-COOH)][Bip][Phe(4-COOH)][Orn][dL][Dab][Cha]VEC[Dab][AEEA][AEEA][Aun]-OH; thioether N-14) |
| 96.1 | Cc1cccc(C[C@@H]2NC(=O)[C@H](CC(=O)O)NC(=O)[C@H](Cc3ccc(OCC(=O)O)cc3)NC(=O)[C@H](CCCNC(=N)N)NC(=O)CN(C)C[C@@H](C(=O)N[C@@H](CCN)C(=O)NCCCCCCCCCCC(=O)O)NC(=O)[C@H]([C@@H](C)O)NC(=O)[C@H](C(C)C)NC(=O)[C@H](CC3CCCCC3)NC(=O)[C@H](CCN)NC(=O)[C@@H](CC(C)C)NC(=O)[C@H](CCCN)NC(=O)[C@H](Cc3ccc(OCC(=O)O)cc3)NC(=O)[C@H](Cc3ccc(-c4ccccc4)cc3)NC(=O)[C@H](Cc3ccc(OCC(=O)O)cc3)NC2=O)c1 [Compound 2159] |
| 37.4 | CC(C)C[C@H]1NC(=O)[C@H](CCCN)NC(=O)[C@H](C(C)C)NC(=O)[C@H](Cc2ccc(-c3ccccc3)cc2)NC(=O)[C@H](C(C)C)NC(=O)[C@H](Cc2c[nH]c3ccccc23)NC(=O)[C@H](CC(=O)O)NC(=O)[C@H](Cc2ccc(OCC(=O)O)cc2)NC(=O)[C@H](CN)NC(=O)CSC[C@@H](C(=O)NCCOCCOCC(=O)N[C@H](CCN)C(=O)NCCCCCCCCCCC(=O)O)NC(=O)[C@H]([C@@H](C)O)NC(=O)[C@H](C(C)C)NC(=O)[C@H](CC2CCCCC2)NC(=O)[C@H](Cc2cnc[nH]2)NC1=O [Compound 1129] ({CH2CO}-[Dap]Y(Carboxymethyl)DWV[Bip]V[Orn][dL]H[Cha]VTC[AEEA][dDab][Aun]-OH; thioether N-14) |
| 26 | COC[C@H](NC(=O)COCCOCCNC(=O)[C@H](CCN)NC(=O)[C@@H]1CSCC(=O)N[C@@H](CCN)C(=O)N[C@@H](Cc2ccc(OCC(=O)O)cc2)C(=O)N[C@@H](CC(=O)O)C(=O)N[C@@H](Cc2cccc(C)c2)C(=O)N[C@@H](Cc2ccc(OCC(=O)O)cc2)C(=O)N[C@@H](Cc2ccc(-c3ccccc3)cc2)C(=O)N[C@@H](Cc2ccc(OCC(=O)O)cc2)C(=O)N[C@@H](CCCN)C(=O)N[C@H](CC(C)C)C(=O)N[C@@H](CCN)C(=O)N[C@@H](CC2CCCCC2)C(=O)N[C@@H](C(C)(C)O)C(=O)N[C@@H](CO)C(=O)N1)C(=O)NCCCCCCCCCCCCC(=O)O [Compound 3816] ({CH2CO}-[Dab]Y(Carboxymethyl)D[Phe(3-Me)]Y(Carboxymethyl)[Bip]Y(Carboxymethyl)[Orn][dL][Dab][Cha][Val(3-OH)]SC[Dab][AEEA]S(Me)-{NH(CH2)12COOH}; thioether N-14) |
| 20.9 | CC(C)C[C@H]1NC(=O)[C@H](CCCN)NC(=O)[C@H](Cc2ccc(O)cc2)NC(=O)[C@H](Cc2ccc(-c3ccccc3)cc2)NC(=O)[C@H](C(C)C)NC(=O)[C@H](Cc2c[nH]c3ccccc23)NC(=O)[C@H](CC(=O)O)NC(=O)[C@H](Cc2ccc(OCC(=O)O)cc2)NC(=O)[C@H](CCCCNC(=N)N)NC(=O)CSC[C@@H](C(=O)N[C@@H](CCN)C(=O)NCCCCCCCCCCC(=O)O)NC(=O)[C@H](CCO)NC(=O)[C@H](C(C)C)NC(=O)[C@H](CC2CCCCC2)NC(=O)[C@H](CCN)NC1=O [Compound 3408] ({CH2CO}-[hArg]Y(Carboxymethyl)DWV[Bip]Y[Orn][dL][Dab][Cha]V[hSer]C[Dab][Aun]-OH; thioether N-14) |
| 6.8 | Cc1cccc(C[C@@H]2NC(=O)[C@H](CC(=O)O)NC(=O)[C@H](Cc3ccc(OCC(=O)O)cc3)NC(=O)[C@H](CN)NC(=O)CSC[C@@H](C(=O)NCCOCCOCC(=O)N[C@@H](CC(=O)NCCCCCCCCCCC(=O)O)C(=O)O)NC(=O)[C@H]([C@@H](C)O)NC(=O)[C@H](C(C)C)NC(=O)[C@H](CC3CCCCC3)NC(=O)[C@H](CCN)NC(=O)[C@@H](CC(C)C)NC(=O)[C@H](CCCN)NC(=O)[C@H](CCCNC(N)=O)NC(=O)[C@H](Cc3ccc(-c4ccccc4)cc3)NC(=O)[C@H](C(C)C)NC2=O)c1 [Compound 1031] ({CH2CO}-[Dap]Y(Carboxymethyl)D[Phe(3-Me)]V[Bip][Cit][Orn][dL][Dab][Cha]VTC[AEEA][βAsp][Aun]-OH; thioether N-14) |
| 13 | Cc1cccc(C[C@@H]2NC(=O)[C@H](CC(=O)O)NC(=O)[C@H](Cc3ccc(OCC(=O)O)cc3)NC(=O)[C@H](CN)NC(=O)CSC[C@@H](C(=O)N[C@@H](CCN)C(=O)NCCOCCOCC(=O)NCCCCCCCCCCC(=O)O)NC(=O)[C@H](C(C)O)NC(=O)[C@H](Cc3ccc(O)cc3)NC(=O)[C@H](CC3CCCCC3)NC(=O)[C@H](CCN)NC(=O)[C@@H](CC(C)C)NC(=O)[C@H](CCCN)NC(=O)[C@H](CCCNC(N)=O)NC(=O)[C@H](Cc3ccc(-c4ccccc4)cc3)NC(=O)[C@H](Cc3ccc(O)cc3)NC2=O)c1 (stereo partly drawn) [Compound 2571] ({CH2CO}-[Dap]Y(Carboxymethyl)D[Phe(3-Me)]Y[Bip][Cit][Orn][dL][Dab][Cha]Y[Thr(3ξ)]C[Dab][AEEA][Aun]-OH; thioether N-14) |
| 26.1 | Cc1cccc(C[C@@H]2NC(=O)[C@H](CC(=O)O)NC(=O)[C@H](Cc3ccc(OCC(=O)O)cc3)NC(=O)[C@H](Cc3ccc(OCC(=O)O)cc3)NC(=O)CSC[C@@H](C(=O)N[C@H](CCN)C(=O)NCCCCCCCCCCC(=O)O)NC(=O)[C@H](CO)NC(=O)[C@H](C(C)C)NC(=O)[C@H](CC(C)C)NC(=O)[C@H](CCN)NC(=O)[C@@H](CC(C)C)NC(=O)[C@H](CCCN)NC(=O)[C@H](C(C)C)NC(=O)[C@H](Cc3ccc(-c4ccccc4)cc3)NC(=O)[C@@H](CC(C)C)NC2=O)c1 [Compound 1145] ({CH2CO}-Y(Carboxymethyl)Y(Carboxymethyl)D[Phe(3-Me)][dL][Bip]V[Orn][dL][Dab]LVSC[dDab][Aun]-OH; thioether N-14) |
| 97.6 | CC(C)C[C@H]1NC(=O)[C@H](CCCN)NC(=O)[C@H](Cc2ccc(O)cc2)NC(=O)[C@H](Cc2ccc(-c3ccccc3)cc2)NC(=O)[C@H](C(C)C)NC(=O)[C@H](Cc2c[nH]c3ccccc23)NC(=O)[C@H](CC(=O)O)NC(=O)[C@H](Cc2ccc(O)cc2)NC(=O)[C@H](Cc2ccncc2)NC(=O)CSC[C@@H](C(=O)N[C@@H](CCN)C(=O)NCCCCCCCCCCC(=O)O)NC(=O)[C@H]([C@@H](C)O)NC(=O)[C@H](C(C)C)NC(=O)[C@H](CC2CCCCC2)NC(=O)[C@H](CCN)NC1=O [Compound 2743] ({CH2CO}-[4Pal]YDWV[Bip]Y[Orn][dL][Dab][Cha]VTC[Dab][Aun]-OH; thioether N-14) |
| 37.3 | Cc1cccc(C[C@@H]2NC(=O)[C@H](CC(=O)O)NC(=O)[C@H](Cc3ccc(OCC(=O)O)cc3)NC(=O)[C@H](C(C)O)NC(=O)CSC[C@@H](C(=O)N[C@H](CCC(=O)O)C(=O)NCCCCCCCCCCCC(=O)O)NC(=O)[C@H](C(C)O)NC(=O)[C@H](C(C)C)NC(=O)[C@H](CC3CCCCC3)NC(=O)[C@H](CCN)NC(=O)[C@@H](CC(C)C)NC(=O)[C@H](CCCN)NC(=O)[C@H](CCCNC(N)=O)NC(=O)[C@H](Cc3ccc(-c4ccccc4)cc3)NC(=O)[C@H](C(C)C)NC2=O)c1 (stereo partly drawn) [Compound 3553] ({CH2CO}-[Thr(3ξ)]Y(Carboxymethyl)D[Phe(3-Me)]V[Bip][Cit][Orn][dL][Dab][Cha]V[Thr(3ξ)]C[dE][12Ado]-OH; thioether N-14) |
| 21.3 | Cc1cccc(C[C@@H]2NC(=O)[C@H](CC(=O)O)NC(=O)[C@H](Cc3ccc(OCC(=O)O)cc3)NC(=O)[C@H](CCCNC(=N)N)NC(=O)CSC[C@@H](C(=O)N[C@@H](CO)C(=O)N[C@@H](CO)C(=O)NCCCCCCCCCCC(=O)O)NC(=O)[C@H]([C@@H](C)O)NC(=O)[C@H](C(C)C)NC(=O)[C@H](CC3CCCCC3)NC(=O)[C@H](CCN)NC(=O)[C@@H](CC(C)C)NC(=O)[C@H](CCCN)NC(=O)[C@H](CCCNC(N)=O)NC(=O)[C@H](Cc3ccc(-c4ccccc4)cc3)NC(=O)[C@H](C(C)C)NC2=O)c1 [Compound 2851] ({CH2CO}-RY(Carboxymethyl)D[Phe(3-Me)]V[Bip][Cit][Orn][dL][Dab][Cha]VTCSS[Aun]-OH; thioether N-14) |
| 65 | Cc1cccc(C[C@@H]2NC(=O)[C@H](CC(=O)O)NC(=O)[C@H](Cc3ccc(OCC(=O)O)cc3)NC(=O)[C@H](CN)NC(=O)CSC[C@@H](C(=O)N[C@@H](CCN)C(=O)NCCCCCCCCCCC(=O)O)NC(=O)[C@H](CN)NC(=O)[C@H](Cc3ccc(O)cc3)NC(=O)[C@H](CC3CCCCC3)NC(=O)[C@H](CCN)NC(=O)[C@@H](CC(C)C)NC(=O)[C@H](CCCN)NC(=O)[C@H](Cc3ccc(O)cc3)NC(=O)[C@H](Cc3ccc(-c4ccccc4)cc3)NC(=O)[C@H](Cc3ccc(O)cc3)NC2=O)c1 [Compound 2510] ({CH2CO}-[Dap]Y(Carboxymethyl)D[Phe(3-Me)]Y[Bip]Y[Orn][dL][Dab][Cha]Y[Dap]C[Dab][Aun]-OH; thioether N-14) |
